Experimental data as given in ChEMBL document CHEMBL4043305, “Structure-Activity Relationship Study of Cyclic Pentapeptide Ligands for Atypical Chemokine Receptor 3 (ACKR3)” (J Med Chem, 2018).

Columns and labels:
[1] = target: C-X-C chemokine receptor type 4 (Homo sapiens, UniProt P61073); assay: Displacement of [125I]SDF-1alpha from CXCR4 (unknown origin) expressed in HEK293 cells after 1 hr by scintillation counting method; type: cell-based
[2] = target: Atypical chemokine receptor 3 (Homo sapiens, UniProt P25106); assay: Displacement of [125I]SDF-1alpha from ACKR3 (unknown origin) expressed in CHO cells after 1 hr by scintillation counting method; type: cell-based
Chain of Atypical chemokine receptor 3 (P25106 whole entry): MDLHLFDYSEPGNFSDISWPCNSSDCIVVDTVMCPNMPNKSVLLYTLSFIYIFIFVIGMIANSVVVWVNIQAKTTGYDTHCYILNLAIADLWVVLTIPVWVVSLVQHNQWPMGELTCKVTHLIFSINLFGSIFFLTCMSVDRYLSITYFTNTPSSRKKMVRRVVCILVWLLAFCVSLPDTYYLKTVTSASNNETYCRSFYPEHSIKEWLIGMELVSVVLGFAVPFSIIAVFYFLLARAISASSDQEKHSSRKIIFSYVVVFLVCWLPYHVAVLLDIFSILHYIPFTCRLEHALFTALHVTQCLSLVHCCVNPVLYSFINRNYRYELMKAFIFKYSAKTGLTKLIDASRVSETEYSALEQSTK

Chain of C-X-C chemokine receptor type 4 (P61073 whole entry): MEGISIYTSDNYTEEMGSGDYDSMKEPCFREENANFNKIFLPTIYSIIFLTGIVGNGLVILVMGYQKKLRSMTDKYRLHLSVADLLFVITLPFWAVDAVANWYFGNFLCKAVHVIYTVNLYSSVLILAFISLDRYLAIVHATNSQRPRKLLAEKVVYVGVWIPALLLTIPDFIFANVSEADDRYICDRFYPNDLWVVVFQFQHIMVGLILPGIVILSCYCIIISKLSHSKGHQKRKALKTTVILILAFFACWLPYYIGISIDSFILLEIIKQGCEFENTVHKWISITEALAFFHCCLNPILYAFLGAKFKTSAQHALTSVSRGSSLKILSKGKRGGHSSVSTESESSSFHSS

IC50 [1] | IC50 [2] | Structure (SMILES)
> 30 µM | 2 to 24 µM | CN1C(=O)[C@H](Cc2ccccc2)NC(=O)[C@@H](Cc2ccc(O)cc2)NC(=O)[C@@H]2CCCN2C(=O)[C@H](Cc2ccc3ccccc3c2)NC(=O)[C@@H]1CCCNC(=N)N
> 30 µM | 2.6 µM | CN1C(=O)[C@H](CCCNC(=N)N)NC(=O)[C@@H](Cc2ccc(O)cc2)NC(=O)[C@H](Cc2ccc3ccccc3c2)N(C)C(=O)[C@H](Cc2ccc3ccccc3c2)NC(=O)[C@@H]1CCCNC(N)=O
> 30 µM | 2 to 24 µM | CC[C@H](C)[C@@H]1NC(=O)[C@@H](Cc2ccc(O)cc2)NC(=O)[C@@H]2CCCN2C(=O)[C@H](Cc2ccc3ccccc3c2)NC(=O)[C@H](CCCNC(=N)N)N(C)C1=O
> 30 µM | 2 to 24 µM | CC(C)C[C@@H]1NC(=O)[C@@H](Cc2ccc(O)cc2)NC(=O)[C@@H]2CCCN2C(=O)[C@H](Cc2ccc3ccccc3c2)NC(=O)[C@H](CCCNC(=N)N)N(C)C1=O
> 30 µM | 2 to 24 µM | CN1C(=O)[C@H](CO)NC(=O)[C@@H](Cc2ccc(O)cc2)NC(=O)[C@@H]2CCCN2C(=O)[C@H](Cc2ccc3ccccc3c2)NC(=O)[C@@H]1CCCNC(=N)N
> 30 µM | 2 to 24 µM | CN1C(=O)[C@H](Cc2c[nH]c3ccccc23)NC(=O)[C@@H](Cc2ccc(O)cc2)NC(=O)[C@@H]2CCCN2C(=O)[C@H](Cc2ccc3ccccc3c2)NC(=O)[C@@H]1CCCNC(=N)N
> 30 µM | 4 µM | CN1C(=O)[C@H](CCCNC(=N)N)NC(=O)[C@@H](Cc2ccc(O)cc2)NC(=O)[C@H](Cc2ccc(-c3ccccc3)cc2)N(C)C(=O)[C@H](Cc2ccc3ccccc3c2)NC(=O)[C@@H]1CCCNC(N)=O
10 µM | 0.52 µM | CN1C(=O)[C@H](CCCNC(=N)N)NC(=O)[C@@H](Cc2ccc(O)cc2)NC(=O)[C@H](Cc2c[nH]c3ccccc23)N(C)C(=O)[C@H](Cc2ccc3ccccc3c2)NC(=O)[C@@H]1CCCNC(N)=O
> 30 µM | 2 µM | CN1C(=O)[C@H](CCCNC(=N)N)NC(=O)[C@@H](Cc2ccc([N+](=O)[O-])cc2)NC(=O)[C@@H]2CCCN2C(=O)[C@H](Cc2ccc3ccccc3c2)NC(=O)[C@@H]1CCCNC(N)=O
> 30 µM | 4.2 µM | CN1C(=O)[C@H](CCCNC(=N)N)NC(=O)[C@@H](Cc2ccc(O)cc2)NC(=O)[C@@H]2Cc3ccccc3CN2C(=O)[C@H](Cc2ccc3ccccc3c2)NC(=O)[C@@H]1CCCNC(N)=O
> 30 µM | 3.6 µM | CN1C(=O)[C@H](CCCNC(N)=O)NC(=O)[C@@H](Cc2ccc(O)cc2)NC(=O)[C@@H]2CCCN2C(=O)[C@H](Cc2ccc3ccccc3c2)NC(=O)[C@@H]1CCCNC(=N)N
> 30 µM | 5 µM | CN1C(=O)[C@H](CCCNC(=N)N)NC(=O)[C@@H](CCc2ccccc2)NC(=O)[C@@H]2CCCN2C(=O)[C@H](Cc2ccc3ccccc3c2)NC(=O)[C@@H]1CCCNC(N)=O
> 30 µM | 0.79 µM | CN1C(=O)[C@H](CCCNC(=N)N)NC(=O)[C@@H](Cc2ccc(Cl)cc2)NC(=O)[C@@H]2CCCN2C(=O)[C@H](Cc2ccc3ccccc3c2)NC(=O)[C@@H]1CCCNC(N)=O
> 30 µM | 0.41 µM | CN1C(=O)[C@H](CCCNC(=N)N)NC(=O)[C@@H](Cc2ccccc2F)NC(=O)[C@@H]2CCCN2C(=O)[C@H](Cc2ccc3ccccc3c2)NC(=O)[C@@H]1CCCNC(N)=O
– | 0.45 µM | CN1C(=O)[C@H](CCCCNC(=N)N)NC(=O)[C@@H](Cc2ccccc2F)NC(=O)[C@H](Cc2cccc3ccccc23)N(C)C(=O)[C@H](Cc2ccc3ccccc3c2)NC(=O)[C@@H]1CCCCNC(=N)N
> 30 µM | 0.56 µM | CN1C(=O)[C@H](CCCNC(=N)N)NC(=O)[C@@H](Cc2ccc(O)cc2)NC(=O)[C@@H]2CCCN2C(=O)[C@H](Cc2ccc3ccccc3c2)NC(=O)[C@@H]1CCCCNC(=N)N

IC50 [1] | IC50 [2] | Structure (SMILES)
> 30 µM | 0.54 µM | CN1C(=O)[C@H](CCCNC(=N)N)NC(=O)[C@@H](Cc2csc3ccccc23)NC(=O)[C@@H]2CCCN2C(=O)[C@H](Cc2ccc3ccccc3c2)NC(=O)[C@@H]1CCCNC(N)=O
> 30 µM | 2 to 24 µM | CC(C)[C@@H]1NC(=O)[C@@H](Cc2ccc(O)cc2)NC(=O)[C@@H]2CCCN2C(=O)[C@H](Cc2ccc3ccccc3c2)NC(=O)[C@H](CCCNC(=N)N)N(C)C1=O
> 30 µM | 2 to 24 µM | CN1C(=O)[C@H](Cc2ccc(O)cc2)NC(=O)[C@@H](Cc2ccc(O)cc2)NC(=O)[C@@H]2CCCN2C(=O)[C@H](Cc2ccc3ccccc3c2)NC(=O)[C@@H]1CCCNC(=N)N
> 30 µM | 2 to 24 µM | C[C@@H](O)[C@@H]1NC(=O)[C@@H](Cc2ccc(O)cc2)NC(=O)[C@@H]2CCCN2C(=O)[C@H](Cc2ccc3ccccc3c2)NC(=O)[C@H](CCCNC(=N)N)N(C)C1=O
> 30 µM | 1.3 µM | CN1C(=O)[C@H](CCCNC(=N)N)NC(=O)[C@@H](Cc2cccc(F)c2)NC(=O)[C@@H]2CCCN2C(=O)[C@H](Cc2ccc3ccccc3c2)NC(=O)[C@@H]1CCCNC(N)=O
> 30 µM | 0.19 µM | CN1C(=O)[C@H](CCCNC(=N)N)NC(=O)[C@@H](Cc2ccc(O)cc2)NC(=O)[C@@H]2Cc3ccccc3N2C(=O)[C@H](Cc2ccc3ccccc3c2)NC(=O)[C@@H]1CCCNC(N)=O
> 30 µM | 0.72 µM | CN1C(=O)[C@H](CCCNC(=N)N)NC(=O)[C@@H](Cc2ccc(C(=O)c3ccccc3)cc2)NC(=O)[C@@H]2CCCN2C(=O)[C@H](Cc2ccc3ccccc3c2)NC(=O)[C@@H]1CCCNC(N)=O
> 30 µM | 2 to 24 µM | CN1C(=O)[C@H](Cc2cnc[nH]2)NC(=O)[C@@H](Cc2ccc(O)cc2)NC(=O)[C@@H]2CCCN2C(=O)[C@H](Cc2ccc3ccccc3c2)NC(=O)[C@@H]1CCCNC(=N)N
> 30 µM | 1 µM | CN1C(=O)[C@H](CCCNC(=N)N)NC(=O)[C@@H](Cc2ccc(O)cc2)NC(=O)[C@H](Cc2csc3ccccc23)N(C)C(=O)[C@H](Cc2ccc3ccccc3c2)NC(=O)[C@@H]1CCCNC(N)=O
> 30 µM | 2 to 24 µM | CN1C(=O)[C@H](CCCCN)NC(=O)[C@@H](Cc2ccc(O)cc2)NC(=O)[C@@H]2CCCN2C(=O)[C@H](Cc2ccc3ccccc3c2)NC(=O)[C@@H]1CCCNC(=N)N
> 30 µM | 3.2 µM | CN1C(=O)[C@H](CCCNC(=N)N)NC(=O)[C@@H](Cc2c[nH]c3ccccc23)NC(=O)[C@@H]2CCCN2C(=O)[C@H](Cc2ccc3ccccc3c2)NC(=O)[C@@H]1CCCNC(N)=O
> 30 µM | 1.8 µM | CN1C(=O)[C@H](CCCNC(=N)N)NC(=O)[C@@H](Cc2ccc(O)cc2)NC(=O)[C@H](Cc2ccc(O)cc2)N(C)C(=O)[C@H](Cc2ccc3ccccc3c2)NC(=O)[C@@H]1CCCNC(N)=O
> 30 µM | 2.1 µM | CN1C(=O)[C@H](CCCNC(=N)N)NC(=O)[C@@H](Cc2ccc(O)cc2)NC(=O)[C@@H]2Cc3[nH]c4ccccc4c3CN2C(=O)[C@H](Cc2ccc3ccccc3c2)NC(=O)[C@@H]1CCCNC(N)=O
> 30 µM | 1.9 µM | CC(C)C[C@H]1C(=O)N[C@H](Cc2ccc(O)cc2)C(=O)N[C@@H](CCCNC(=N)N)C(=O)N(C)[C@@H](CCCNC(N)=O)C(=O)N[C@@H](Cc2ccc3ccccc3c2)C(=O)N1C
21 µM | 4.6 µM | CN1C(=O)[C@H](Cc2ccc3ccccc3c2)NC(=O)[C@H](CCCNC(N)=O)N(C)C(=O)[C@H](CCCNC(=N)N)NC(=O)[C@@H](Cc2ccc(O)cc2)NC(=O)[C@H]1CS
